Experimental findings from US8796289B2 (AbbVie Inc., priority 2011, dated 2014) are described below.

Chain of GST-tagged-Wee1 kinase (P30291 whole entry): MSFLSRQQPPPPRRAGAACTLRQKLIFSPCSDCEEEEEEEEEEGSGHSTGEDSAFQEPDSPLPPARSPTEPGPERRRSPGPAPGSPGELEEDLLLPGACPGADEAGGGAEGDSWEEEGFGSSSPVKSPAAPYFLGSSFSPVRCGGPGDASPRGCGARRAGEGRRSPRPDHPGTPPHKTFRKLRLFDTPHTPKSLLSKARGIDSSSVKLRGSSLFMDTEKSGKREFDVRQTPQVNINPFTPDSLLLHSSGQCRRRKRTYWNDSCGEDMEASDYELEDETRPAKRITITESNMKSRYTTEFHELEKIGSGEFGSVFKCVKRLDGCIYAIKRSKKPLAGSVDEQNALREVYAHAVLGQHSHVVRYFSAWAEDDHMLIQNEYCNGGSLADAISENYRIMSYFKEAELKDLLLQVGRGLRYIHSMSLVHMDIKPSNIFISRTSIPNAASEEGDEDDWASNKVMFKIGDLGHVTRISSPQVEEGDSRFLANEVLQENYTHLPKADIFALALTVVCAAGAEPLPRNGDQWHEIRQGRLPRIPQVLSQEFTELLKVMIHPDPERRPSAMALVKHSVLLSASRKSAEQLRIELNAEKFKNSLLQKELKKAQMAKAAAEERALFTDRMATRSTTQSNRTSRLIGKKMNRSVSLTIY

The first assay addresses GST-tagged-Wee1 kinase (Homo sapiens, UniProt P30291). In words: Wee1 time-resolved fluorescence equilibrium binding assay (displacement of Oregon Green-labeled ATP-competitive kinase probe).
Details: not given
The method, then:
Wee1 kinase was assayed using a time-resolved fluorescence equilibrium binding assay monitoring displacement of a rapidly reversible Oregon Green-labeled ATP-competitive kinase probe (N-(2-(2-(2-(4-(4-(5-chloro-4-(2-(1-hydroxycyclobutyl)thiazol-5-yl)-1H-pyrrolo[2,3-b]pyridin-2-yl)phenyl)piperazin-1-yl)ethoxy)ethoxy)ethyl)-2′,7′-difluoro-3′,6′-dihydroxy-3-oxo-3H-spiro[isobenzofuran-1,9′-xanthene]-5-carboxamide) by competitive Wee1 inhibitors.
`CN1Cc2cc(Nc3ncc4c(=O)n(-c5c(Cl)cccc5Cl)nc(C5CCC5)c4n3)ccc2C2(CC2)C1` [Example 280, 8-cyclobutyl-6-(2,6-dichlorophenyl)-2-[(2′-methyl-2′,3′-dihydro-1′H-spiro[cyclopropane-1,4′-isoquinolin]-7′-yl)amino]pyrimido[4,5-d]pyridazin-5(6H)-one]: the inhibition constant (Ki) – broadly, a measure of affinity in units of concentration, obtained from inhibition or displacement – is 0.51 nM.
Compound `CN1CCN(c2ccc(Nc3ncc4c(=O)n(C5CCC5)nc(-c5ccncc5)c4n3)cc2)CC1` [Example 282, 6-cyclobutyl-2-{[4-(4-methylpiperazin-1-yl)phenyl]amino}-8-(pyridin-4-yl)pyrimido[4,5-d]pyridazin-5(6H)-one] gave a Ki of 58 nM.
Still for that read-out and setting: the result for `Cc1nn(-c2c(Cl)cccc2Cl)c(=O)c2cnc(Nc3cccc(NC4CCN(C)CC4)c3)nc12` [Example 522, 6-(2,6-dichlorophenyl)-8-methyl-2-({3-[(1-methylpiperidin-4-yl)amino]phenyl}amino)pyrimido[4,5-d]pyridazin-5(6H)-one] reads 0.13 nM.
`CN1CCN(c2ccc(Nc3ncc4c(=O)n(C)nc(-c5ccccc5)c4n3)cc2)CC1` [Example 3, 6-methyl-2-{[4-(4-methylpiperazin-1-yl)phenyl]amino}-8-phenylpyrimido[4,5-d]pyridazin-5(6H)-one]: the affinity, expressed as Ki, was 180 nM.
`Cc1nn(-c2c(Cl)cccc2Cl)c(=O)c2cnc(Nc3ccc(C4CCCN4)cc3)nc12` (stereo not drawn) [Example 455, 6-(2,6-dichlorophenyl)-8-methyl-2-{[4-(pyrrolidin-2-yl)phenyl]amino}pyrimido[4,5-d]pyridazin-5(6H)-one] registered a Ki of 0.5 nM.
The compound `CN1CCN(c2ccc(Nc3ncc4c(=O)n(-c5c(Cl)cccc5Cl)nc(-c5cccc(C#N)c5)c4n3)cc2)CC1` [Example 89, 3-[6-(2,6-dichlorophenyl)-2-{[4-(4-methylpiperazin-1-yl)phenyl]amino}-5-oxo-5,6-dihydropyrimido[4,5-d]pyridazin-8-yl]benzonitrile] showed a Ki of 0.07 nM.
As for `CN1CCN(c2ccc(Nc3ncc4c(=O)n(-c5c(Cl)cccc5Cl)nc(C5CC5)c4n3)cc2)CC1` [Example 386, 8-cyclopropyl-6-(2,6-dichlorophenyl)-2-{[4-(4-methylpiperazin-1-yl)phenyl]amino}pyrimido[4,5-d]pyridazin-5(6H)-one], the inhibitory constant (Ki) was 0.48 nM.
In the case of `Cc1nn(-c2c(Cl)cccc2Cl)c(=O)c2cnc(Nc3ccc(C4CCN(C)CC4)cc3)nc12` [Example 456, 6-(2,6-dichlorophenyl)-8-methyl-2-{[4-(1-methylpiperidin-4-yl)phenyl]amino}pyrimido[4,5-d]pyridazin-5(6H)-one], affinity was put at a Ki of 0.5 nM.
Still for that read-out and setting: as for `C=CCn1nc(-c2ccccc2)c2nc(Nc3ccc(N4CCN(C(C)C)CC4)cc3)ncc2c1=O` [Example 139, 6-allyl-2-{[4-(4-isopropylpiperazin-1-yl)phenyl]amino}-8-phenylpyrimido[4,5-d]pyridazin-5(6H)-one], the figure is 5 nM.
The same measure, in the same setting: the result for `CN1CCN(c2ccc(Nc3ncc4c(=O)n(-c5c(Cl)cccc5Cl)nc(-c5cccc(N(C)C)c5)c4n3)cc2)CC1` [Example 90, 6-(2,6-dichlorophenyl)-8-[3-(dimethylamino)phenyl]-2-{[4-(4-methylpiperazin-1-yl)phenyl]amino}pyrimido[4,5-d]pyridazin-5(6H)-one] reads 0.2 nM; that for `O=C1CCCN1c1ccc(-c2nn(-c3c(Cl)cccc3Cl)c(=O)c3cnc(Nc4ccc(C5CCNCC5)cc4)nc23)cc1` [Example 254, 6-(2,6-dichlorophenyl)-8-[4-(2-oxopyrrolidin-1-yl)phenyl]-2-{[4-(piperidin-4-yl)phenyl]amino}pyrimido[4,5-d]pyridazin-5(6H)-one], 0.3 nM; that for `CN1Cc2cc(Nc3ncc4c(=O)n(-c5ccccn5)nc(-c5ccccn5)c4n3)ccc2C(C)(C)C1` [Example 287], 11 nM.
Still for that read-out and setting: as for `CN1CCCC(n2nc(-c3ccccn3)c3nc(Nc4ccc5c(c4)CNCC5(C)C)ncc3c2=O)C1` (stereo not drawn) [Example 332, 2-[(4,4-dimethyl-1,2,3,4-tetrahydroisoquinolin-7-yl)amino]-6-(1-methylpiperidin-3-yl)-8-(pyridin-2-yl)pyrimido[4,5-d]pyridazin-5(6H)-one], the figure is 490 nM.
`O=c1c2cnc(Nc3ccc(N4CCNCC4)cc3)nc2c(C(F)(F)F)nn1-c1c(Cl)cccc1Cl` [Example 418, 6-(2,6-dichlorophenyl)-2-{[4-(piperazin-1-yl)phenyl]amino}-8-(trifluoromethyl)pyrimido[4,5-d]pyridazin-5(6H)-one] returned a Ki of 0.35 nM.
Same read-out and setting: as for `Cc1nn(-c2c(Cl)cncc2Cl)c(=O)c2cnc(Nc3ccc4c(c3)CN(C)C4(C)C)nc12` [Example 488, 6-(3,5-dichloropyridin-4-yl)-8-methyl-2-[(1,1,2-trimethyl-2,3-dihydro-1H-isoindol-5-yl)amino]pyrimido[4,5-d]pyridazin-5(6H)-one], the figure is 0.29 nM; as for `CN1CCN(c2ccc(Nc3ncc4c(=O)n(-c5c(Cl)cccc5Cl)nc(-c5ccc(N6CCCC6=O)cc5)c4n3)cc2)CC1` [Example 244, 6-(2,6-dichlorophenyl)-2-{[4-(4-methylpiperazin-1-yl)phenyl]amino}-8-[4-(2-oxopyrrolidin-1-yl)phenyl]pyrimido[4,5-d]pyridazin-5(6H)-one], 0.5 nM; as for `C=CCn1nc(C2CC(F)(F)C2)c2nc(Nc3ccc(N4CCN(C)CC4)cc3)ncc2c1=O` [Example 196, 8-(3,3-difluorocyclobutyl)-2-{[4-(4-methylpiperazin-1-yl)phenyl]amino}-6-(prop-2-en-1-yl)pyrimido[4,5-d]pyridazin-5(6H)-one], 230 nM.
On the same count and under the same terms, as for `CCCc1nn(CC(F)(F)F)c(=O)c2cnc(Nc3ccc(N4CCN(C)CC4)cc3)nc12` [Example 23, 2-{[4-(4-methylpiperazin-1-yl)phenyl]amino}-8-propyl-6-(2,2,2-trifluoroethyl)pyrimido[4,5-d]pyridazin-5(6H)-one], the figure is 370 nM; as for `CC1CCCC(C)C1n1nc(-c2ccccn2)c2nc(Nc3ccc4c(c3)CN(C)CC4(C)C)ncc2c1=O` (stereo not drawn) [Example 330, 6-(2,6-dimethylcyclohexyl)-8-(pyridin-2-yl)-2-[(2,4,4-trimethyl-1,2,3,4-tetrahydroisoquinolin-7-yl)amino]pyrimido[4,5-d]pyridazin-5(6H)-one], 260 nM.
Compound `CC(C)n1nc(-c2ccncc2)c2nc(Nc3ccc4c(c3)CN(C)CC43CC3)ncc2c1=O` [Example 275, 2-[(2′-methyl-2′,3′-dihydro-1′H-spiro[cyclopropane-1,4′-isoquinolin]-7′-yl)amino]-6-(propan-2-yl)-8-(pyridin-4-yl)pyrimido[4,5-d]pyridazin-5(6H)-one] displayed an inhibition constant (Ki) of 3.2 nM.
Take `CC(C)N1CCN(c2ccc(Nc3ncc4c(=O)n(-c5ccccc5Cl)nc(-c5cccs5)c4n3)cc2)CC1` [Example 122, 6-(2-chlorophenyl)-2-{[4-(4-isopropylpiperazin-1-yl)phenyl]amino}-8-(2-thienyl)pyrimido[4,5-d]pyridazin-5(6H)-one]: the affinity, expressed as Ki, was 0.5 nM.
Same read-out and setting: the result for `CN1CCN(c2ccc(Nc3ncc4c(=O)n(-c5c(Cl)cccc5Cl)nc(-c5nccs5)c4n3)cc2)CC1` [Example 316, 6-(2,6-dichlorophenyl)-2-{[4-(4-methylpiperazin-1-yl)phenyl]amino}-8-(1,3-thiazol-2-yl)pyrimido[4,5-d]pyridazin-5(6H)-one] reads 1.8 nM; that for `C=CCn1nc(-c2cccc(Br)c2)c2nc(Nc3ccc(N4CCN(C)CC4)cc3)ncc2c1=O` [Example 68, 6-allyl-8-(3-bromophenyl)-2-{[4-(4-methylpiperazin-1-yl)phenyl]amino}pyrimido[4,5-d]pyridazin-5(6H)-one], 14 nM; that for `O=c1c2cnc(Nc3ccc(S(=O)(=O)N4CCOCC4)cc3)nc2c(-c2cccs2)nn1-c1ccccc1Cl` [Example 165, 6-(2-chlorophenyl)-2-{[4-(morpholin-4-ylsulfonyl)phenyl]amino}-8-(2-thienyl)pyrimido[4,5-d]pyridazin-5(6H)-one], above 3140 nM.
Still for that read-out and setting: as for `CN1CCN(c2ccc(Nc3ncc4c(=O)n(-c5c(F)cccc5Cl)nc(-c5cccc(O)n5)c4n3)cc2)CC1` [Example 303, 6-(2-chloro-6-fluorophenyl)-8-(6-hydroxypyridin-2-yl)-2-{[4-(4-methylpiperazin-1-yl)phenyl]amino}pyrimido[4,5-d]pyridazin-5(6H)-one], the figure is 2.8 nM; as for `CN1CCN(CCn2cc(-c3nn(-c4c(Cl)cccc4Cl)c(=O)c4cnc(Nc5ccc(N6CCN(C)CC6)cc5)nc34)cn2)CC1` [Example 214, 6-(2,6-dichlorophenyl)-8-{1-[2-(4-methylpiperazin-1-yl)ethyl]-1H-pyrazol-4-yl}-2-{[4-(4-methylpiperazin-1-yl)phenyl]amino}pyrimido[4,5-d]pyridazin-5(6H)-one], 0.4 nM; as for `Cc1nn(-c2c(Cl)cccc2Cl)c(=O)c2cnc(Nc3cccc(C(=O)N4CCN(C)CC4)c3)nc12` [Example 528, 6-(2,6-dichlorophenyl)-8-methyl-2-({3-[(4-methylpiperazin-1-yl)carbonyl]phenyl}amino)pyrimido[4,5-d]pyridazin-5(6H)-one], 2.4 nM.
On the same count and under the same terms, the result for `CN1CCN(c2ccc(Nc3ncc4c(=O)n(-c5c(Cl)cccc5Cl)nc(-c5cnn(C)c5)c4n3)cc2)CC1` [Example 87, 6-(2,6-dichlorophenyl)-2-{[4-(4-methylpiperazin-1-yl)phenyl]amino}-8-(1-methyl-1H-pyrazol-4-yl)pyrimido[4,5-d]pyridazin-5(6H)-one] reads 0.1 nM; that for `Cc1nn(-c2c(Cl)cccc2Cl)c(=O)c2cnc(Nc3ccc4c(c3)CN(C)C4(C)C)nc12` [Example 471, 6-(2,6-dichlorophenyl)-8-methyl-2-[(1,1,2-trimethyl-2,3-dihydro-1H-isoindol-5-yl)amino]pyrimido[4,5-d]pyridazin-5(6H)-one], 0.16 nM.

The assay is the same for the next values; noted with them: read-out: Wee-1 inhibition Ki.
With “6-(2-chlorophenyl)-2-{[4-(4-isopropylpiperazin-1-yl)-3-methylphenyl]amino}-8-(2-thienyl)pyrimido[4,5-d]pyridazin-5(6H)-one [Example 166]”, the Ki came out at 0.8 nM.
